Results on 1 compound are retold here after US20090298903A1, “USE OF TETRAMIC ACID DERIVATIVES FOR INSECT CONTROL” (priority 2006, published 2009).

Common to all, as to format: in vivo
Assay [1] relates to Anthonomus pomorum, the apple blossom weevil. The experiment in a line: Example 26B: apple trees against apple blossom weevil. The settings on record: 22 d after treatment, larvae on inflorescences, Thiacloprid (SC 480) 48 + Deltamethrin 3.75 tank mix, (I-4) (150 OD) 48 g a.s./ha/m crown level. How it is done:
Apple trees cv. “Holsteiner Cox” in plots approx. 20 m^2 in size are treated, in 4 replications, against Anthonomus pomorum, the apple blossom weevil. Here, the active substance Example (I-4) (150 OD) at the specified application rate is tested against a tank mix of the commercial standards Thiacloprid (SC 480) and Deltamethrin-liquid in the specified application rates. The application is carried out with a knapsack sprayer. Here, the treatment is effected with a water application rate of 500 l/ha/m crown level.
The test is evaluated 22 days after the treatment by scoring the destruction of the larvae on the inflorescences with the aid of the Abbott method.

In the next assay the test system is Ceutorhynchus napi. As to the kind of experiment: Example 26-A: oilseed rape against Ceutorhynchus napi. The settings on record: 55 d after treatment, larvae, Deltamethrin (25 EC) 5, (I-4) (+ 0.2% rapeseed oil methyl ester) 72, Thiacloprid (OD 240) 72, Lambda-cyhalothrin 5 g a.s./ha. How it is done:
Plots approx. 25 m^2 in size which are planted with oilseed rape cv. “Artus” are treated, in four replications, against Ceutorhynchus napi. The application is carried out with a motor-operated knapsack sprayer. Here, the active substance Example (I-4), in a tank mix with 0.2% a.s. rapeseed oil methyl ester (500 EW) and the commercial standards Deltamethrin (25 EC), lambda-cyhalothrin (S100) and Thiacloprid (OD 240), is tested at the specified application rates. The water application rate is 250 l/ha.
The test is evaluated 55 days after the treatment by scoring the destruction rate of the larvae on the plants.

In the next assay the test system is Dacus ciliatus. As to the kind of experiment: Example 22A: bottle gourds against Dacus ciliatus. How it is done:
Plots approx. 10 m^2 in size which are planted with bottle gourds cv. “Waltham” are treated, in three replications, against Dacus ciliatus. The application is carried out with a motor-operated knapsack sprayer. Here, the active substance Example (I-4) (150 OD) and the commercial standard Fenthion (500 EC) are tested at the specified application rates. Three applications are carried out at in each case an interval of 7 days. The water application rate is approx. 500 l/ha.
The test is evaluated 8, 14 and 21 days after treatment 1 by scoring the infestation of the fruits.

The test system of the next assay is Caliothrips phaseoli. The experiment in a line: Example 3: courgettes against Caliothrips phaseoli. The settings on record: 8 d after treatment, nymphs on 5 leaves, Endosulfan (350 EC) 525, (I-4) (240 SC + 0.1% rapeseed oil methyl ester) 72 g a.s./ha. How it is done: Plots approx. 22 m^2 in size which are planted with courgettes cv. “Italiana negra” are treated, in three replications, against Caliothrips phaseoli. The application is effected with a motor-driven knapsack sprayer. Here, the active substance Example (I-4) (240 SC), in a tank mix together with 0.1% a.s. rapeseed oil methyl ester (500 EW) and the commercial standard endosulfan (350 EC), is tested at the specified application rates. The water application rate is approx. 510 l/ha.
The test is evaluated 8 days after the treatment by scoring the destruction of the animals (nymphs) on 5 leaves.

For assay [2], the system named is Frankliniella occidentalis. The experiment in a line: Example 5: aubergines against Frankliniella occidentalis. The settings on record: mixed populations on leaves. How it is done:
Plots 6 m^2 in size which are planted with aubergines cv. “Soraya” are treated, in three replications, against Frankliniella occidentalis. The application is effected with a motor-operated knapsack sprayer. Here, the active substances Example (I-4) (240 SC) and Example (I-9) (240 SC), in a tank mix together with 0.1% a.s. rapeseed oil methyl ester (500 EW) and the commercial standard Spinosad (480 SC), are tested at the specified application rates. The water application rate is 1500 l/ha.
The test is evaluated 25, 32 and 39 days after the treatment by scoring the destruction rate of the mixed populations on the leaves.

SMILES strings stand for the structures.

For the compound `CCOC(=O)OC1=C(c2cc(C)ccc2C)C(=O)N[C@]12CC[C@@H](OC)CC2` [Example (I-4)], the “Efficacy (%) Abbott 22 d” value in assay [1] was 88%. Also, the “Efficacy (% Abbott) 55 d” value with Ceutorhynchus napi was 74.3 % Abbott. Also, the “Efficacy (% Abbott) 8 d” value is 59.5 % Abbott in the assay with Dacus ciliatus (8 d after treatment 1, infestation of fruits, Fenthion (500 EC) 300, (I-4) (150 OD) 200 g a.s./ha, three applications, 7-day intervals) and 71.3 % Abbott in the assay with Caliothrips phaseoli. Further, the “Efficacy (% Abbott) 14 d” value in the assay with Dacus ciliatus (14 d after treatment 1, Fenthion 300, (I-4) 200 g a.s./ha) came out at 48.9 % Abbott. The “Efficacy (% Abbott) 21 d” value in the assay on Dacus ciliatus (21 d after treatment 1, Fenthion 300, (I-4) 200 g a.s./ha) is recorded as 44.5 % Abbott. Further, the “Efficacy (% Abbott) 25 d” value in assay [2] (25 d after treatment, Spinosad (480 SC) 0.012, (I-9) 0.0054, (I-4) 0.012 % a.s., 240 SC + 0.1% rapeseed oil methyl ester) is reported as 92.1 % Abbott. Besides, the “Efficacy (% Abbott) 32 d” value in assay [2] (32 d after treatment, Spinosad 0.012, (I-9) 0.0054, (I-4) 0.012 % a.s.) stood at 88.3 % Abbott. Also, in assay [2] (39 d after treatment, Spinosad 0.012, (I-9) 0.0054, (I-4) 0.012 % a.s.), the “Efficacy (% Abbott) 39 d” value worked out at 89.7 % Abbott.
